This passage reports T/C results from PubChem BioAssay AID330 (DTP/NCI, 2004).

Structures are written as SMILES. Where “and” joins values, the source holds several entries; their conditions need not be identical. Equal values may be shown once. Toxic doses and inconclusive results are not listed.

In this assay the test system is P388 leukemia ip, CD2F1 mice, survival T/C. Description: NCI In Vivo Anticancer Drug Screen. Data for tumor model P388 Leukemia (intraperitoneal) in CD2F1 (CDF1) mice. The note with it: endpoint: median survival time, higher = longer survival. The essentials:
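Mice carrying the transplanted tumor received test compound or vehicle. Survival was recorded in each group, and the value is the treated-group measurement divided by that of the vehicle-treated control group.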

The mark [1] stands for this setting: dose: 50.0 mg/kg/injection, schedule: Q01DX009 (ip), vehicle: saline with Tween-80.
The mark [2] stands for this setting: dose: 60.0 mg/kg/injection, schedule: Q01DX005 (ip), vehicle: saline with Tween-80.
[3] abbreviates: dose: 120.0 mg/kg/injection, schedule: Q01DX005 (ip), vehicle: saline with Tween-80.
Where [4] appears, read: dose: 240.0 mg/kg/injection, schedule: Q01DX005 (ip), vehicle: saline with Tween-80.
The mark [5] stands for this setting: dose: 25.0 mg/kg/injection, schedule: Q01DX009 (ip), vehicle: Klucel (hydroxypropylcellulose) (HPC).
Where [6] appears, read: dose: 50.0 mg/kg/injection, schedule: Q01DX009 (ip), vehicle: Klucel (hydroxypropylcellulose) (HPC).
The mark [7] stands for this setting: dose: 50.0 mg/kg/injection, schedule: Q01DX005 (ip), vehicle: saline with Tween-80.
Where [8] appears, read: dose: 100.0 mg/kg/injection, schedule: Q01DX005 (ip), vehicle: saline with Tween-80.
The mark [9] stands for this setting: dose: 50.0 mg/kg/injection, schedule: Q01DX005 (ip), vehicle: Klucel (hydroxypropylcellulose) (HPC).
The mark [10] stands for this setting: dose: 100.0 mg/kg/injection, schedule: Q01DX005 (ip), vehicle: Klucel (hydroxypropylcellulose) (HPC).
[11] abbreviates: dose: 200.0 mg/kg/injection, schedule: Q01DX005 (ip), vehicle: Klucel (hydroxypropylcellulose) (HPC).

On to `CC1(O)C(c2ccccc2)=C(c2ccccc2)C2(c3ccccc3)Oc3c(Cl)c(Cl)c(Cl)c(Cl)c3OC12c1ccccc1` (stereo unspecified), for which the T/C runs as follows: (dose: 12.5 mg/kg/injection, schedule: Q01DX009 (ip), vehicle: saline with Tween-80) 94 % of control; (dose: 25.0 mg/kg/injection, schedule: Q01DX009 (ip), vehicle: saline with Tween-80) 94 % of control; under setting [1], 90 % of control and 93 % of control.
Take `Cc1nc(N)[nH]c(=O)c1CCCNC(=O)c1cccc([N+](=O)[O-])c1`: the T/C is, setting by setting: under setting [2], 94 % of control; under setting [3], 100 % of control; under setting [4], 103 % of control.
Regarding `CC(C)[CH2][Sn](=[O])[c]1ccccc1`, the T/C (dose: 0.39 mg/kg/injection, schedule: Q01DX009 (ip), vehicle: saline) was 88 % of control; the T/C (dose: 0.79 mg/kg/injection, schedule: Q01DX009 (ip), vehicle: saline) was 87 % of control; the T/C (dose: 1.56 mg/kg/injection, schedule: Q01DX009 (ip), vehicle: saline) is 95 % of control.
As for `CCN(CC)CCCC(C)Nc1cc(/C=C/c2ccc(Cl)cc2)nc2ccc(N(C)C)cc12` (stereo unspecified), the T/C (dose: 7.5 mg/kg/injection, schedule: Q01DX005 (ip), vehicle: saline with Tween-80) was 100 % of control and the T/C (dose: 15.0 mg/kg/injection, schedule: Q01DX005 (ip), vehicle: saline with Tween-80) was 104 % of control.
`O=c1[nH]/c(=C/c2ccccc2)c(=O)[nH]/c1=C/C=C/c1ccccc1`: the T/C reads like this: under setting [5], 107 % of control; under setting [6], 104 % of control; (dose: 100.0 mg/kg/injection, schedule: Q01DX009 (ip), vehicle: Klucel (hydroxypropylcellulose) (HPC)) 102 % of control.
Take `CCOC1(OCC)Oc2c(c3ccccc3c3ccccc23)/C1=C1\c2c(c3ccccc3c3ccccc23)OC1(OCC)OCC`: the T/C is 94 % of control under setting [7] and 92 % of control under setting [8].
Turning to `Cc1cc(N/N=C/c2ccc(N(CCCl)CCCl)cc2)nc2ccc(Cl)cc12`, the T/C is 97 % of control (dose: 50.0 mg/kg/injection, schedule: Q01DX009 (ip), vehicle: saline); 100 % of control (dose: 100.0 mg/kg/injection, schedule: Q01DX009 (ip), vehicle: saline); 100 % of control (dose: 200.0 mg/kg/injection, schedule: Q01DX009 (ip), vehicle: saline).
In the case of `Nc1nc(Cl)c2nnn(C3CC(O)C(CO)C3)c2n1` (stereo unspecified), the T/C by setting is: (dose: 6.25 mg/kg/injection, schedule: Q01DX005 (ip), vehicle: Klucel (hydroxypropylcellulose) (HPC)) 116 % of control; (dose: 12.5 mg/kg/injection, schedule: Q01DX005 (ip), vehicle: Klucel (hydroxypropylcellulose) (HPC)) 112 % of control; (dose: 25.0 mg/kg/injection, schedule: Q01DX005 (ip), vehicle: Klucel (hydroxypropylcellulose) (HPC)) 119 % of control; under setting [9], 110 % of control.
On to `C(#C[P+]1(c2ccccc2)C=C(c2ccccc2)OC(c2ccccc2)=C1)c1ccccc1`, for which the T/C is 107 % of control (dose: 12.5 mg/kg/injection, schedule: Q01DX005 (ip), vehicle: saline with Tween-80); 102 % of control (dose: 25.0 mg/kg/injection, schedule: Q01DX005 (ip), vehicle: saline with Tween-80); 107 % of control under setting [7].
For `O=C(O)C1CSC2(CCCC2)N1` (stereo unspecified), the T/C was 101 % of control (dose: 100.0 mg/kg/injection, schedule: Q04DX003 (ip), vehicle: saline); 98 % of control (dose: 200.0 mg/kg/injection, schedule: Q04DX003 (ip), vehicle: saline); 98 % of control (dose: 400.0 mg/kg/injection, schedule: Q04DX003 (ip), vehicle: saline).
For `COc1cccc(/C=N/NC(=O)CNC(=O)Nc2cccc([N+](=O)[O-])c2)c1OC`, the T/C by setting is: under setting [2], 90 % of control; under setting [3], 89 % of control and 96 % of control; under setting [4], 99 % of control and 100 % of control.
For `Cc1cc(N2C(=O)CCSC2=S)ccc1Cl`, the T/C reads like this: (dose: 12.5 mg/kg/injection, schedule: Q01DX009 (ip), vehicle: Klucel (hydroxypropylcellulose) (HPC)) 120 % of control; under setting [5], 119 % of control; under setting [6], 109 % of control and 114 % of control; (dose: 50.0 mg/kg/injection, schedule: Q01DX009 (ip), vehicle: suspension in saline) 97 % of control; (dose: 100.0 mg/kg/injection, schedule: Q01DX009 (ip), vehicle: suspension in saline) 90 % of control; (dose: 200.0 mg/kg/injection, schedule: Q01DX009 (ip), vehicle: Klucel (hydroxypropylcellulose) (HPC)) 102 % of control. Besides, the T/C (dose: 200.0 mg/kg/injection, schedule: Q01DX009 (ip), vehicle: suspension in saline) is 92 % of control.
As for `CCOP(=S)(N/N=C/c1c(CO)cnc(C)c1O)OCC`, the T/C reads like this: under setting [9], 98 % of control; under setting [10], 102 % of control; under setting [11], 101 % of control.
As to `c1ccc(N=c2nc(Nc3ccccc3)ss2)cc1`, the T/C is 94 % of control under setting [7]; 86 % of control under setting [8]; 90 % of control (dose: 200.0 mg/kg/injection, schedule: Q01DX005 (ip), vehicle: saline with Tween-80).
For `Nc1ccc2c(c1)C1(CCC2)NC(=O)NC1=O` (stereo unspecified), the T/C runs as follows: under setting [1], 96 % of control; (dose: 100.0 mg/kg/injection, schedule: Q01DX009 (ip), vehicle: saline with Tween-80) 95 % of control; (dose: 200.0 mg/kg/injection, schedule: Q01DX009 (ip), vehicle: saline with Tween-80) 105 % of control.
As to `COc1cc(C[C@@H](CO)[C@H](CO)Cc2ccc3c(c2)OCO3)cc(OC)c1OC`, the T/C by setting is: (dose: 6.25 mg/kg/injection, schedule: Q04DX002 (ip), vehicle: saline with Tween-80) 101 % of control; (dose: 12.5 mg/kg/injection, schedule: Q04DX002 (ip), vehicle: saline with Tween-80) 101 % of control; (dose: 25.0 mg/kg/injection, schedule: Q04DX002 (ip), vehicle: saline with Tween-80) 93 % of control.
As for `CC(C)(C#N)NCCNC(C)(C)C#N`, the T/C is, setting by setting: (dose: 6.25 mg/kg/injection, schedule: Q01DX001 (ip), vehicle: saline) 108 % of control; (dose: 12.5 mg/kg/injection, schedule: Q01DX001 (ip), vehicle: saline) 99 % of control.
In the case of `c1ccc(-c2nc3cccnc3s2)cc1`, the T/C is, setting by setting: under setting [2], 101 % of control; under setting [3], 101 % of control; under setting [4], 104 % of control.
As for `CCCSCCNC(=O)C1(O)C(O)C2(CC)C=CCN3CCC4(c5cc(C6(OC(C)=O)CC7C=C(CC)CN(CCc8c6[nH]c6ccccc86)C7)c(OC)cc5N(C)C14)C32` (stereo unspecified), the T/C by setting is: (dose: 0.5 mg/kg/injection, schedule: Q01DX001 (ip), vehicle: water) 107 % of control; (dose: 2.0 mg/kg/injection, schedule: Q01DX001 (ip), vehicle: water) 111 % of control; (dose: 4.0 mg/kg/injection, schedule: Q01DX001 (ip), vehicle: water) 159 % of control; (dose: 8.0 mg/kg/injection, schedule: Q01DX001 (ip), vehicle: water) 161 % of control; (dose: 16.0 mg/kg/injection, schedule: Q01DX001 (ip), vehicle: water) 158 % of control and 198 % of control.
`CN(C(=O)Nc1cccc2c(NC(=O)N(C)C3CCCCC3)cccc12)C1CCCCC1`: the T/C runs as follows: under setting [2], 93 % of control; under setting [3], 87 % of control; under setting [4], 90 % of control.
For the molecule `CC[C@@]1(C(N)=O)CC2C=CC1C2` (stereo partly specified), the T/C under setting [9] is 94 % of control, the T/C under setting [10] was 90 % of control and the T/C under setting [11] was 96 % of control.
`CCCCC1SC2=NCCN2C1(O)c1ccc(Cl)cc1` (stereo unspecified): the T/C is 113 % of control under setting [9] and 109 % of control under setting [10].
Consider `CC1C(c2ccccc2)OCN1C` (stereo unspecified), for which the T/C is 110 % of control and 88 % of control (dose: 12.5 mg/kg/injection, schedule: Q01DX005 (ip), vehicle: saline); 100 % of control and 116 % of control (dose: 25.0 mg/kg/injection, schedule: Q01DX005 (ip), vehicle: saline); 110 % of control [middle of 5 runs] (dose: 50.0 mg/kg/injection, schedule: Q01DX005 (ip), vehicle: saline); 118 % of control and 109 % of control (dose: 100.0 mg/kg/injection, schedule: Q01DX005 (ip), vehicle: saline); 116 % of control (dose: 200.0 mg/kg/injection, schedule: Q01DX005 (ip), vehicle: saline).
On to `CC1C(C(=O)NCCc2ccccc2)CC2CCCCN21` (stereo unspecified), for which the T/C was 102 % of control under setting [2] and 96 % of control under setting [3].
